Laboratory results published in patent publication US20240115577A1, “SMALL MOLECULE REGULATORS OF ALVEOLAR TYPE 2 CELL PROLIFERATION FOR THE TREATMENT OF PULMONARY DISEASES” (THE SCRIPPS RESEARCH INSTITUTE, priority 2021, published 2024).
“Also recorded” adds a separate entry of the source. Like-named read-outs stand apart in the source and are kept apart here.

Assays:
[1] = molecular target: Human DPP4 (Homo sapiens (Human), UniProt P27487); assay: DPP4 activity assay (Sigma-Aldrich MAK088 kit); format: biochemical; details: Table 4; read-out: DPPIV IC50
Description: DPP4 activity assay. Human DPP4 activity assay data were obtained using a DPP4 Activity Assay Kit (Sigma-Aldrich, MAK088) according to the manufacturer's instructions. Briefly, 10 μL of DPP4 Assay Buffer was transferred per well in low volume 384-well plates before transferring 10 μL of diluted compound dissolved in DPP4 assay buffer. 5 μL of Master Reaction Mix containing a fluorescent substrate that becomes fluorescent upon cleavage by the enzyme. Fluorescence intensity measurements were recorded at 1-minute time intervals over the course of 20 minutes using an Envision Multimode Plate Reader (PerkinElmer).

[2] = system: Primary human AEC2s; assay: AEC2 proliferation assay (Ki67 high content imaging); format: cell-based
Description: To identify small molecules capable of proliferating AEC2s, as disclosed herein, we first established a culture system with primary human small airway epithelial cells (SAECs) from a commercial source.
AEC2 proliferation assay. Primary human AEC2s were plated at a density of 1,500 cells per well in black 384-well plates (Greiner) coated with 10 ug/mL. Laminin (Life Technologies) in 50 μL of Small Airway Epithelial Cell Growth Medium (Lonza) without EGF, retinoic acid and with 5% BPE. 100 nL of compound dissolved in DMSO was then delivered using a Biomek FX instrument (Beckman Coulter) fitted with a pintool head (V&P Scientific).

[3] = IT pharmacokinetics of dutogliptin (1) and dutogliptin boronate (15); format: in vivo, mouse; details: for Plasma concentration of dutogliptin, individual animals / Bronchoalveolar lavage fluids concentration of dutogliptin, individual animals / Lung concentration of dutogliptin, individual animals: mice, 1.8 mg/kg IT dutogliptin boronate (cpd 15)
Description: Like other […]. Dutogliptin (1) dosed IT in mice with PBS solution quickly cleared in lung (<24h. Table 8A). […] The parent drug dutogliptin was detected in plasma and lung. […] The drug was retained in the lung for over 48 h. The data clearly illustrated the unexpected lung retention ability of boronate prodrug 15.

[4] = system: bleomycin-induced lung fibrosis; assay: Bleomycin-induced lung fibrosis model; format: in vivo, mouse; details: 0.5 mg/kg IT once every four days, versus vehicle
Description: Experimental Methods of Bleomycin Model Bleomycin (Hospira) was used to induce lung fibrosis in mice. Body weight matched (24 gram˜28 gram) male C57BL/6J mice at 10-12 weeks of age were selected to use in bleomycin model. For orally delivered DPP4 inhibitors. compounds were dissolved in PBS resulting in clear solution. […] For intratracheally delivered DPP4 inhibitors, compounds were dissolved in PBS resulting in clear solution. […] 0.5 U/kg Bleomycin or PBS in sham group was intratracheally injection into mice lung at day 0. […] All animals were sacrificed at day 20 after bleomycin injection. Bronchoalveolar lavage fluid (BALF) was retrieved using standard method. 1 ml 4% formalin was used to inflate the lung, which was subsequently fixed in 4% formalin for 24 hours and preserved in 70% EtOH until histological process. For readouts, body weight was measured every day; total protein content in BALF was quantified using BCA assay; pulmonary fibrosis was assessed using Masson's trichrome staining.

[5] = system: alveolar epithelium; details: Stone et al., Diab et al.; cited from earlier work
[6] = system: human pulmonary fibroblasts; assay: Pulmonary fibroblast counter-assay; format: cell-based; details: at concentrations that promoted AEC2 proliferation
[7] = Homo sapiens, Table 4, promotion of AEC2 proliferation, read-out: AEC2 EC50
[8] = Homo sapiens, Table 5, read-out: AEC2 proliferation

Human DPP4, sequence (P27487 whole entry): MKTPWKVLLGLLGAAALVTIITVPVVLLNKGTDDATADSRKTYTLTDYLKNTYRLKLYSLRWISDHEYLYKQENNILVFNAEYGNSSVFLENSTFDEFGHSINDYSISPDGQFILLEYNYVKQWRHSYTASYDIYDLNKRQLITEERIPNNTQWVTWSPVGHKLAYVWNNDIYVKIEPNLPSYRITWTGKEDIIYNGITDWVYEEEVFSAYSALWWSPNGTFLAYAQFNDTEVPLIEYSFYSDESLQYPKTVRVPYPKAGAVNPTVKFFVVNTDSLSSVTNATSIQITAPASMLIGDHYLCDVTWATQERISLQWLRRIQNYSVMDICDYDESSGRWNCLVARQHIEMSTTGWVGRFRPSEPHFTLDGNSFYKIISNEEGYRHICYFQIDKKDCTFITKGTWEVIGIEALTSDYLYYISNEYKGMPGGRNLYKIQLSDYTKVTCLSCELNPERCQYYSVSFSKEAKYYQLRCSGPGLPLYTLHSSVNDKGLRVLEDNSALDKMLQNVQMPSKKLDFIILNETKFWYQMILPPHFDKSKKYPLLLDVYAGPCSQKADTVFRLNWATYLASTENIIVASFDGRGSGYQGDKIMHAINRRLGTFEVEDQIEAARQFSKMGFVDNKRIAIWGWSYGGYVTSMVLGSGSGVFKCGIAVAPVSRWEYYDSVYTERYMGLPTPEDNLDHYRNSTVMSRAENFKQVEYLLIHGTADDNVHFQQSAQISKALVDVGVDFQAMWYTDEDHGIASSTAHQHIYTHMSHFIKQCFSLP

## CCOC(=O)C12CCC(NCC(=O)N3C[C@@H](F)C[C@H]3C#N)(CC1)CC2 [Cpd 2, ethyl 4-((2-((2S,4S)-2-cyano-4-fluoropyrrolidin-1-yl)-2-oxoethyl)amino)bicyclo[2.2.2]octane-1-carboxylate]
[1]
  IC50: 2.2 nM

## N#C[C@@H]1CCCN1C(=O)CNC12CC3C[C@@H](C1)C[C@@](O)(C3)C2 [Cpd 3, (2S)-1-(((1S,3R,5S)-3-hydroxyadamantan-1-yl)glycyl)pyrrolidine-2-carbonitrile]
[2]; [7]
  EC50: 160 nM
[2]; [8]
  EC50: 160 nM

## Cn1c(=O)cc(N2CCC[C@@H](N)C2)n(Cc2ccccc2C#N)c1=O [Cpd 7, (R)-2-((6-(3-aminopiperidin-1-yl)-3-methyl-2,4-dioxo-3,4-dihydropyrimidin-1(2H)-yl)methyl)benzonitrile]
[2]; [7]
  EC50: 110 nM
[2]; [8]
  EC50: 110 nM

## CS(=O)(=O)n1cc2c(n1)CN([C@H]1CO[C@H](c3cc(F)ccc3F)[C@@H](N)C1)C2 [Cpd 9, (2R,3S,5R)-2-(2,5-difluorophenyl)-5-(2-(methylsulfonyl)-2,6-dihydropyrrolo[3,4-c]pyrazol-5(4H)-yl)tetrahydro-2H-pyran-3-amine]
[2]; [7]
  EC50: 43 nM
[2]; [8]
  EC50: 43 nM

## Cn1c(=O)cc(N2CCC[C@@H](N)C2)n(Cc2cc(F)ccc2C#N)c1=O [Cpd 10, (R)-2-((6-(3-aminopiperidin-1-yl)-3-methyl-2,4-dioxo-3,4-dihydropyrimidin-1(2H)-yl)methyl)-4-fluorobenzonitrile]
[2]; [7]
  EC50: 67 nM
[2]; [8]
  EC50: 67 nM

## N[C@@H](CC(=O)N1CCc2c(nc(C(F)(F)F)nc2C(F)(F)F)C1)CN1CC(F)(F)CCC1=O [Cpd 11, (S)-1-(2-amino-4-(2,4-bis(trifluoromethyl)-5,8-dihydropyrido[3,4-d]pyrimidin-7(6H)-yl)-4-oxobutyl)-5,5-difluoropiperidin-2-one]
[2]; [7]
  EC50: 220 nM
[2]; [8]
  EC50: 220 nM

## Cc1cc2ncc(C(=O)NCC(C)(C)NCC(=O)N3CCC[C@H]3C#N)cn2n1 [Cpd 12, (S)-N-(2-((2-(2-cyanopyrrolidin-1-yl)-2-oxoethyl)amino)-2-methylpropyl)-2-methylpyrazolo[1,5-a]pyrimidine-6-carboxamide]
[2]; [7]
  EC50: 110 nM
[2]; [8]
  EC50: 110 nM

## CC1(C)[C@@H]2C[C@H]3OB([C@@H]4CCCN4C(=O)CN[C@@H]4CCNC4)O[C@@]3(C)[C@H]1C2 [Cpd 15, 2-(((R)-pyrrolidin-3-yl)amino)-1-((R)-2-((3aS,4S,6S,7aR)-3a,5,5-trimethylhexahydro-4,6-methanobenzo[d][1,3,2]dioxaborol-2-yl)pyrrolidin-1-yl)ethan-1-one]
[3]; IT dosing, data not shown
  plasma and lung levels of the boronate itself: very low and absent after 0.25 h
[3]; 7.00 h
  Plasma concentration of dutogliptin, individual animals: BQL
[3]; 24.0 h
  Plasma concentration of dutogliptin, individual animals: BQL
[3]; 48.0 h
  Bronchoalveolar lavage fluids concentration of dutogliptin, individual animals: BQL
  Lung concentration of dutogliptin, individual animals: BQL
  Plasma concentration of dutogliptin, individual animals: BQL
[3]; 96.0 h
  Bronchoalveolar lavage fluids concentration of dutogliptin, individual animals: BQL
  Lung concentration of dutogliptin, individual animals: BQL
  Plasma concentration of dutogliptin, individual animals: BQL
[3]; 168 h
  Bronchoalveolar lavage fluids concentration of dutogliptin, individual animals: BQL
  Lung concentration of dutogliptin, individual animals: BQL
  Plasma concentration of dutogliptin, individual animals: BQL
[3]; mouse IT pharmacokinetic study
  conversion of the boronate to the active drug: convert to the active drug dutogliptin in both plasma and lung
[3]; mouse, in vivo
  lung exposure of dutogliptin after IT boronate versus IT dutogliptin itself: significantly higher; also recorded: much higher
[4]
  BALF protein level: reduced

## N#C[C@@H]1C[C@H](F)CN1C(=O)CNC12CCC(C(=O)O)(CC1)CC2 [Cpd 16, 4-((2-((2S,4S)-2-cyano-4-fluoropyrrolidin-1-yl)-2-oxoethyl)amino)bicyclo[2.2.2]octane-1-carboxylic acid]
[1]
  IC50: 1.2 nM

## COC(=O)C12CCC(NCC(=O)N3C[C@@H](F)C[C@H]3C#N)(CC1)CC2 [Cpd 17, methyl 4-((2-((2S,4S)-2-cyano-4-fluoropyrrolidin-1-yl)-2-oxoethyl)amino)bicyclo[2.2.2]octane-1-carboxylate]
[1]
  IC50: 1 nM

## N#C[C@@H]1CCCN1C(=O)CNC12CC3C[C@H](CC(N)(C3)C1)C2 [Cpd 18, (2S)-1-(((1S,3R,5R)-3-aminoadamantan-1-yl)glycyl)pyrrolidine-2-carbonitrile]
[1]
  IC50: 38 nM

## CC#CCn1c(N2CCC[C@@H](N)C2)cc(=O)n(Cc2cccc(C(=O)OC)c2)c1=O [Cpd 25, methyl (R)-3-((4-(3-aminopiperidin-1-yl)-3-(but-2-yn-1-yl)-2,6-dioxo-3,6-dihydropyrimidin-1(2H)-yl)methyl)benzoate]
[1]
  IC50: 6 nM

## N[C@@H](CC(=O)N1CCn2c(C(F)(F)F)nc(C(=O)O)c2C1)Cc1cc(F)c(F)cc1F [Cpd 26, (R)-7-(3-amino-4-(2,4,5-trifluorophenyl)butanoyl)-3-(trifluoromethyl)-5,6,7,8-tetrahydroimidazo[1,5-a]pyrazine-1-carboxylic acid]
[1]
  IC50: 0.8 nM

## CCCCCCCCc1ccc(CCC(N)(CO)CO)cc1 [FTY-720]
[5]
  apoptosis and inflammatory cytokine release in alveolar epithelium: inhibited apoptosis and inflammatory cytokine release
[2]
  AEC2 proliferation, result in words: active

## N#Cc1ccc(NCCNCC(=O)N2CCC[C@H]2C#N)nc1 [NVP-728]
[6]
  total number, percent Ki67 positivity, or myofibroblast differentiation status of pulmonary fibroblasts: did not increase
[2]; FIG. 1B, 1C, read-out: EC50, AEC2 proliferation (ReFRAME screen hits)
  EC50: ~500 nM

## CC(C)Oc1ccc(-c2nc(-c3cccc4c3CC[C@@H]4NCCO)no2)cc1C#N [Ozanimod]
[2]
  AEC2 proliferation, result in words: active

## FC(F)(F)c1cccc(-c2noc(-c3cc(-c4ccccc4)c(C(F)(F)F)s3)n2)c1 [SEW-2871]
[5]
  apoptosis and inflammatory cytokine release in alveolar epithelium: inhibited apoptosis and inflammatory cytokine release
[2]
  AEC2 proliferation, result in words: active

## CCc1cc(/C(C)=N/OCc2ccc(C3CCCCC3)c(C(F)(F)F)c2)ccc1CN1CC(C(=O)O)C1 [siponimod]
[6]
  total number, percent Ki67 positivity, or myofibroblast differentiation status of pulmonary fibroblasts: did not increase
[2]; Homo sapiens, FIG. 1B, 1C, read-out: EC50, AEC2 proliferation (ReFRAME screen hits)
  EC50: ~100 nM
